Results taken from the NIST ThermoML archive (doi:10.1016/j.jct.2012.10.012).
Several values for one entry are separate records, joined by “and”; a condition that tells them apart may be missing. Equal values may be shown once.

Conditions: Crystal, Calculated from knudsen effusion weight loss

O=C1CNC(=O)CN1 [2,5-diketopiperazine]
Conditions | vapor or sublimation pressure
419.16 K | 0.000101 kPa and 9.91e-05 kPa and 9.65e-05 kPa
421.11 K | 0.000118 kPa and 0.000119 kPa and 0.000114 kPa
423.15 K | 0.00014 kPa and 0.000137 kPa and 0.000141 kPa
425.16 K | 0.000168 kPa and 0.000156 kPa and 0.000162 kPa
427.1 K | 0.000196 kPa and 0.000188 kPa and 0.000195 kPa
429.14 K | 0.000232 kPa and 0.000226 kPa and 0.000236 kPa
431.17 K | 0.00029 kPa and 0.000257 kPa and 0.000273 kPa
433.11 K | 0.00033 kPa and 0.00032 kPa and 0.000347 kPa
435.15 K | 0.000382 kPa and 0.00038 kPa and 0.00039 kPa
437.19 K | 0.00047 kPa and 0.000459 kPa
439.11 K | 0.000548 kPa and 0.000519 kPa and 0.00052 kPa
441.16 K | 0.000646 kPa and 0.000627 kPa and 0.000626 kPa

CC1NC(=O)C(C)NC1=O (centres undefined) [3,6-dimethyl-2,5-piperazinedione]
Conditions | vapor or sublimation pressure
388.13 K | 0.000116 kPa and 0.000126 kPa
390.16 K | 0.000142 kPa and 0.000149 kPa and 0.00014 kPa
392.15 K | 0.000171 kPa and 0.000179 kPa
394.13 K | 0.000212 kPa and 0.000216 kPa
396.14 K | 0.00026 kPa and 0.000247 kPa and 0.000267 kPa
398.15 K | 0.000309 kPa and 0.000298 kPa and 0.000325 kPa
400.13 K | 0.000387 kPa and 0.000371 kPa and 0.000388 kPa
402.13 K | 0.000454 kPa and 0.000436 kPa and 0.000463 kPa
404.15 K | 0.000543 kPa and 0.000563 kPa
406.14 K | 0.000696 kPa and 0.000677 kPa and 0.000693 kPa
408.14 K | 0.000821 kPa and 0.000818 kPa and 0.000785 kPa
410.15 K | 0.000977 kPa and 0.000955 kPa and 0.000927 kPa
